These results are taken from ChEMBL document CHEMBL1156969 (Bioorg Med Chem Lett, 2010).

Calls of active or inactive are those of the source. The calls are words filed in the database; no cut-off is given here.

For series [1], the target named is Melatonin receptor type 1A (Homo sapiens, UniProt P48039). The series is described as follows: Displacement of [3H]melatonin from human melatonin MT1 receptor expressed in CHO cells after 60 mins by scintillation counting. The series is classed as cell-based.
Melatonin receptor type 1A, sequence (P48039 whole entry): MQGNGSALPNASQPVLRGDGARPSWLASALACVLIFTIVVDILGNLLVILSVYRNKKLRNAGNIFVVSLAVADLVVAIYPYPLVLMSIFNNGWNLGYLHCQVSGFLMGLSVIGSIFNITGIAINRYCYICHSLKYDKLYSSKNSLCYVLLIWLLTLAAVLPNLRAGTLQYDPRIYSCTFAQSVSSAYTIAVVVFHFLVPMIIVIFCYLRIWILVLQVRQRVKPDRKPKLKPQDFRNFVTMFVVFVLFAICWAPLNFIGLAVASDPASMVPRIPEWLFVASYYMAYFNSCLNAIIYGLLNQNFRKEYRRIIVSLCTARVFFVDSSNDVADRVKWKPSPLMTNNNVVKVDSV
Series [2] concerns the target T1, Melatonin receptor type 1B (Homo sapiens, UniProt P49286).
T1 sequence (P49286 whole entry): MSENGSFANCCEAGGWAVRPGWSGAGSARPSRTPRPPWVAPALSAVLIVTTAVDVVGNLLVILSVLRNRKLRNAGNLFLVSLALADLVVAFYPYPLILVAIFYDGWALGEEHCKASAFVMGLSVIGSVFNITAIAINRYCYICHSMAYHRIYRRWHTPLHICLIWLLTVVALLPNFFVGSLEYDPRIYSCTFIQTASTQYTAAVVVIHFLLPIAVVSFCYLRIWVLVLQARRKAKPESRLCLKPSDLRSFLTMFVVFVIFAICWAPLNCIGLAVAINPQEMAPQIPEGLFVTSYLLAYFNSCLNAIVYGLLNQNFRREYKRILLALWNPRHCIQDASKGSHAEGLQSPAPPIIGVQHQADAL
The series is described as follows: Displacement of [3H]melatonin from human melatonin MT2 receptor expressed in CHO cells after 60 mins by scintillation counting. The format is cell-based.

Series [3] is filed under the species Homo sapiens. The series is described as follows: Selectivity ratio of Ki for human melatonin MT1 receptor to Ki for human melatonin MT2 receptor.
Series [4] has as its target T2, Melatonin receptor type 1B (Homo sapiens) (UniProt P49286).
T2 sequence (whole entry): T1 sequence (P49286 whole entry)
Kind of series: Agonist activity at human MT2 receptor expressed as CHO cells assessed as intracellular Ca2+ accumulation by FLIPR assay. The series is classed as functional, cell-based.

Series [5] in a line: Lipophilicity, log P of the compound. The series is classed as physicochemical. The conditions noted are these: octanol/water.

Turning to `COc1ccc(OCCc2ccccc2)c(CCCNC(C)=O)c1`, the Ki in series [1] came out at 2930 nM; in series [2], 13.4 nM. Besides, the Ratio Ki in series [3] is 219.
`CCC(=O)NCCCc1cc(OC)ccc1OCc1ccccc1`: in series [4], the result was Active. In addition, the Ki in series [1] came out at 263 nM; in series [2] it was 0.00055 nM. For the same molecule, the Ratio Ki in series [3] is 473000.
As for `CCC(=O)NCCCc1cccc(OC)c1`, the Ki stood at 85.4 nM in series [1] and 7.07 nM in series [2]. Further, the Ratio Ki in series [3] turned out to be 12.
In series [2], `COc1ccc(OCc2ccc(Br)cc2F)c(CCCNC(C)=O)c1` had a Ki of 102 nM.
On to `COc1cc(CCCNC(C)=O)ccc1O`, for which the values for the Ki in series [1] and in series [2] were 257 nM and 12.6 nM, respectively. Moreover, in series [3], the Ratio Ki was 20.5.
`COc1ccc(OCc2ccccc2)c(CCCNC(=O)c2ccccc2)c1` displayed a Ki in series [2] of 2300 nM.
As for `CCCOc1ccc(OC)cc1CCCNC(C)=O`, the results for the Ki in series [1] and in series [2] were 400 nM and 2.12 nM, respectively. Besides, the Ratio Ki in series [3] came to 189.
The corresponding values for `COc1cc(CCCNC(C)=O)ccc1OCc1ccccc1` are 8980 nM, 69.3 nM and 130.
`COc1ccc2[nH]cc(CCNC(C)=O)c2c1` [MELATONIN] had a logP in series [5] of 2.16.
`CCC(=O)NCCCc1ccc(OCc2ccccc2)c(OC)c1`: the Ki amounted to 2010 nM in series [1] and 121 nM in series [2]. Also, the Ratio Ki in series [3] was 16.7.
For `COc1ccc(OCc2ccccc2)c(CCCNC(C)=O)c1` the same measures were 879 nM, 0.0471 nM and 18700.
In series [1], `COc1cccc(COc2ccc(OC)cc2CCCNC(C)=O)c1` had a Ki of 705 nM.
Turning to `COc1ccc(COc2ccc(OC)cc2CCCNC(C)=O)cc1`, the values for the Ki in series [1] and in series [2] were 2700 nM and 27.9 nM, respectively. Moreover, in series [3], the Ratio Ki was determined as 97.
Consider `COc1cccc(CCCNC(C)=O)c1`, for which the Ki in series [1] stood at 23.3 nM; in series [2], 0.751 nM. The Ratio Ki in series [3] came to 31.
`COc1ccc(OCCCc2ccccc2)c(CCCNC(C)=O)c1` gave a Ki in series [2] of 72.2 nM.
Turning to `COc1cccc(COc2ccc(CCCNC(C)=O)cc2OC)c1`, the values for the Ki in series [1] and in series [2] were 1460 nM and 105 nM, respectively. The Ratio Ki in series [3] was found to be 13.9.
In series [2], `COc1cc(COc2ccc(OC)cc2CCCNC(C)=O)cc(OC)c1` returned a Ki of 0.0326 nM.
For the molecule `CCCC(=O)NCCCc1cc(OC)ccc1OCc1ccccc1`, in series [4], the result was Active. Besides, the Ki in series [1] came to 1170 nM; in series [2] it was 0.00103 nM. In addition, in series [3], the Ratio Ki stood at 1.14e+06.
For the molecule `COc1ccc(OC)c(CCCNC(C)=O)c1`, the Ki in series [1] was 1280 nM; in series [2], 26.1 nM. Also, in series [3], the Ratio Ki was 49.1.
The corresponding values for `CCOc1ccc(OC)cc1CCCNC(C)=O` are 183 nM, 1.59 nM and 116.
With `COc1ccc(OCc2ccccn2)c(CCCNC(C)=O)c1`, the Ki in series [1] worked out at 1840 nM; in series [2], 1.61 nM. Also, in series [3], the Ratio Ki came out at 1150.
As for `COc1ccc(O)c(CCCNC(C)=O)c1`, the Ki is 379 nM in series [1] and 46.2 nM in series [2]. Further, in series [3], the Ratio Ki was found to be 8.22.
